Each molecule was assayed on HT29 human colorectal adenocarcinoma cell line (assay: cell proliferation assay (Cell Titer-Glo luminescent cell viability assay)). Conditions: HT-29, 72 h, read-out: pIC50 (converted).
Assay type: cell-based
Method in brief: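 Cells grown in DMEM with 10% FBS and exposed to compounds for 72 h. Viability read by CellTiter-Glo luminescence, expressed as percentage of DMSO-treated cells.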

| Structure (SMILES) | IC50 [nM] |
| --- | --- |
| CN1CCC(NC(=O)c2ccc(Nc3ncc4c(n3)N(C3CCCC3)CC(C)(C)C(=O)N4C)c(OC(F)F)c2)CC1 [Compound 127, 4-(9-Cyclopentyl-5,7,7-trimethyl-6-oxo-6,7,8,9-tetrahydro-5H-pyrimido[4,5-b][1,4]diazepin-2-ylamino)-3-(difluoromethoxy)-N-(1-methylpiperidin-4-yl)benzamide] | > 10 |

Same assay, conditions: HT-29, cell proliferative assay, HT29 cells, 72 hr treatment, values given as ranges, read-out: pIC50 (converted)

| IC50 [nM] | Structure (SMILES) |
| --- | --- |
| 1 to 2.51 | COc1cc(C(=O)N[C@@H]2CCCN(C)C2)ccc1Nc1ncc2c(n1)N(C1CCCC1)CC1(CC1)C(=O)N2C [Compound 165, (R)-4-(9′-cyclopentyl-5′-methyl-6′-oxo-5′,6′,8′,9′-tetrahydrospiro[cyclopropane-1,7′-pyrimido[4,5-b][1,4]diazepine]-2′-ylamino)-3-methoxy-N-(1-methylpiperidin-3-yl)benzamide] |
| > 10 | CCN1CCC(NC(=O)c2ccc(Nc3ncc4c(n3)N(C3CCCCC3)CC3(CC3)C(=O)N4C)c(OC)c2)CC1 [Compound 176, 4-(9′-cyclohexyl-5′-methyl-6′-oxo-5′,6′,8′,9′-tetrahydrospiro[cyclopropane-1,7′-pyrimido[4,5-b][1,4]diazepine]-2′-ylamino)-N-(1-ethylpiperidin-4-yl)-3-methoxybenzamide] |
| 1 to 2.51 | COc1cc(C(=O)NC2CN(C)C2)ccc1Nc1ncc2c(n1)N(C1CCCC1)CC1(CC1)C(=O)N2C [Compound 163, 4-(9′-cyclopentyl-5′-methyl-6′-oxo-5′,6′,8′,9′-tetrahydrospiro[cyclopropane-1,7′-pyrimido[4,5-b][1,4]diazepine]-2′-ylamino)-3-methoxy-N-(1-methylazetidin-3-yl)benzamide] |
| < 1 | C=CC[C@H]1CN(C2CCCC2)c2nc(Nc3ccc(C(=O)N[C@H]4CCN(C)C4)cc3OC)ncc2N(C)C1=O [Compound 205, 4-((S)-7-allyl-9-cyclopentyl-5-methyl-6-oxo-6,7,8,9-tetrahydro-5H-pyrimido[4,5-b][1,4]diazepin-2-ylamino)-3-methoxy-N-((S)-1-methylpyrrolidin-3-yl)benzamide] |
| > 10 | CCN(CC)C1CCC(NC(=O)c2ccc(Nc3ncc4c(n3)N(C3CCCC3)CCC(=O)N4C)c(OC)c2)CC1 (centres unmarked) [Compound 79, 4-(9-cyclopentyl-5-methyl-6-oxo-6,7,8,9-tetrahydro-5H-pyrimido[4,5-b][1,4]diazepin-2-ylamino)-N-(4-(diethylamino)cyclohexyl) 3-methoxybenzamide] |
| 3.16 to 10 | CC[C@@]1(C)CN(C2CCCCC2)c2nc(Nc3ccc(C(=O)N[C@@H]4CCCNC4)cc3OC)ncc2N(C)C1=O [Compound 148, 4-((S)-9-cyclohexyl-7-ethyl-5,7-dimethyl-6-oxo-6,7,8,9-tetrahydro-5H-pyrimido[4,5-b][1,4]diazepin-2-ylamino)-3-methoxy-N-((R)-piperidin-3-yl)benzamide] |
| < 1 | C=CC[C@H]1CN(C2CCCC2)c2nc(Nc3ccc(C(=O)NC4CN(C)C4)cc3OC)ncc2N(C)C1=O [Compound 196, (S)-4-(7-allyl-9-cyclopentyl-5-methyl-6-oxo-6,7,8,9-tetrahydro-5H-pyrimido[4,5-b][1,4]diazepin-2-ylamino)-3-methoxy-N-(1-methylazetidin-3-yl)benzamide] |
| > 10 | COc1cc(C(=O)NCCN2CCCC2)ccc1Nc1ncc2c(n1)N(C1CCCC1)CCC(=O)N2C [Compound 57, 4-(9-cyclopentyl-5-methyl-6-oxo-6,7,8,9-tetrahydro-5H-pyrimido[4,5-b][1,4]diazepin-2-ylamino)-3-methoxy-N-(2-(pyrrolidin-1-yl)ethyl)benzamide] |
| > 10 | COc1cc(C(=O)NCC2CCN(C(=O)C3CC3)CC2)ccc1Nc1ncc2c(n1)N(C1CCCC1)CCC(=O)N2C [Compound 76, 4-(9-cyclopentyl-5-methyl-6-oxo-6,7,8,9-tetrahydro-5H-pyrimido[4,5-b][1,4]diazepin-2-ylamino)-N-((1-(cyclopropanecarbonyl)piperidin-4-yl)methyl)-3-methoxybenzamide] |
| 3.16 to 10 | COc1cc(C(=O)N[C@@H]2CCN(C)C2)ccc1Nc1ncc2c(n1)N(C1CCCC1)CC(C)(C)C(=O)N2C [Compound 96, (R)-4-(9-cyclopentyl-5,7,7-trimethyl-6-oxo-6,7,8,9-tetrahydro-5H-pyrimido[4,5-b][1,4]diazepin-2-ylamino)-3-methoxy-N-(1-methylpyrrolidin-3-yl)benzamide] |
| 1 to 2.51 | C#CCC1CN(C2CCCC2)c2nc(Nc3ccc(C(=O)NC4CCNCC4)cc3OC)ncc2N(C)C1=O (centres unmarked) [Compound 211, 4-(9-cyclopentyl-5-methyl-6-oxo-7-(prop-2-ynyl)-6,7,8,9-tetrahydro-5H-pyrimido[4,5-b][1,4]diazepin-2-ylamino)-3-methoxy-N-(piperidin-4-yl)benzamide] |
| 1 to 2.51 | C=CCC1(C)CN(C2CCCC2)c2nc(Nc3ccc(C(=O)NC4CCN(C)CC4)cc3OC)ncc2N(C)C1=O (centres unmarked) [Compound 221, 4-(7-allyl-9-cyclopentyl-5,7-dimethyl-6-oxo-6,7,8,9-tetrahydro-5H-pyrimido[4,5-b][1,4]diazepin-2-ylamino)-3-methoxy-N-(1-methylpiperidin-4-yl)benzamide] |
| 1 to 2.51 | C=CCC1CN(C2CCCCC2)c2nc(Nc3ccc(C(=O)N[C@H]4CCN(C)C4)cc3OC)ncc2N(C)C1=O (stereo partly drawn) [Compound 229, 4-(7-allyl-9-cyclohexyl-5-methyl-6-oxo-6,7,8,9-tetrahydro-5H-pyrimido[4,5-b][1,4]diazepin-2-ylamino)-3-methoxy-N-((S)-1-methylpyrrolidin-3-yl)benzamide] |
| 3.16 to 10 | CCC1(C)CN(C2CCCCC2)c2nc(Nc3ccc(C(=O)NC4CN(C)C4)cc3OC)ncc2N(C)C1=O (centres unmarked) [Compound 140, 4-(9-cyclohexyl-7-ethyl-5,7-dimethyl-6-oxo-6,7,8,9-tetrahydro-5H-pyrimido[4,5-b][1,4]diazepin-2-ylamino)-3-methoxy-N-(1-methylazetidin-3-yl)benzamide] |
| > 10 | COc1cc(C(=O)NC2CCNCC2)ccc1Nc1ncc2c(n1)N(C1CCCC1)CCC(=O)N2C [Compound 56, 4-(9-cyclopentyl-5-methyl-6-oxo-6,7,8,9-tetrahydro-5H-pyrimido[4,5-b][1,4]diazepin-2-ylamino)-3-methoxy-N-(piperidin-4-yl)benzamide] |
| 1 to 2.51 | C=CC[C@H]1CN(C2CCCC2)c2nc(Nc3ccc(C(=O)N[C@H]4CCNC4)cc3OC)ncc2N(C)C1=O [Compound 203, 4-((S)-7-allyl-9-cyclopentyl-5-methyl-6-oxo-6,7,8,9-tetrahydro-5H-pyrimido[4,5-b][1,4]diazepin-2-ylamino)-3-methoxy-N-((S)-pyrrolidin-3-yl)benzamide] |
| 1 to 2.51 | COc1cc(C(=O)N[C@@H]2CCCN(C)C2)ccc1Nc1ncc2c(n1)N(C1CCCCC1)CC1(CC1)C(=O)N2C [Compound 172, (R)-4-(9′-cyclohexyl-5′-methyl-6′-oxo-5′,6′,8′,9′-tetrahydrospiro[cyclopropane-1,7′-pyrimido[4,5-b][1,4]diazepine]-2′-ylamino)-3-methoxy-N-(1-methylpiperidin-3-yl)benzamide] |
| > 10 | C=C(F)CC1CN(C2CCCC2)c2nc(Nc3ccc(C(=O)NC4CCN(C)CC4)cc3OC)ncc2N(C)C1=O (centres unmarked) [Compound 231, 4-(9-cyclopentyl-7-(2-fluoroallyl)-5-methyl-6-oxo-6,7,8,9-tetrahydro-5H-pyrimido[4,5-b][1,4]diazepin-2-ylamino)-3-methoxy-N-(1-methylpiperidin-4-yl)benzamide] |
| 1 to 2.51 | COc1cc(C(=O)NC2CN(C)C2)ccc1Nc1ncc2c(n1)N(C1CCCC1)CC(C)(C)C(=O)N2C [Compound 95, 4-(9-cyclopentyl-5,7,7-trimethyl-6-oxo-6,7,8,9-tetrahydro-5H-pyrimido[4,5-b][1,4]diazepin-2-ylamino)-3-methoxy-N-(1-methylazetidin-3-yl)benzamide] |
| 3.16 to 10 | COc1cc(C(=O)NCc2ccncc2)ccc1Nc1ncc2c(n1)N(C1CCCC1)CCC(=O)N2C [Compound 71, 4-(9-cyclopentyl-5-methyl-6-oxo-6,7,8,9-tetrahydro-5H-pyrimido[4,5-b][1,4]diazepin-2-ylamino)-3-methoxy-N-(pyridin-4-ylmethyl)benzamide] |
| > 10 | C=CCC1CN(C2CCCCC2)c2nc(Nc3ccc(C(=O)N[C@H]4CCCN(C)C4)cc3OC)ncc2N(C)C1=O (stereo partly drawn) [Compound 227, 4-(7-allyl-9-cyclohexyl-5-methyl-6-oxo-6,7,8,9-tetrahydro-5H-pyrimido[4,5-b][1,4]diazepin-2-ylamino)-3-methoxy-N-((S)-1-methylpiperidin-3-yl)benzamide] |
| 3.16 to 10 | COc1cc(C(=O)NC2CCNCC2)ccc1Nc1ncc2c(n1)N(C1CCCCC1)CC(C)(C)C(=O)N2C [Compound 116, 4-(9-cyclohexyl-5,7,7-trimethyl-6-oxo-6,7,8,9-tetrahydro-5H-pyrimido[4,5-b][1,4]diazepin-2-ylamino)-3-methoxy-N-(piperidin-4-yl)benzamide] |
| < 1 | COc1cc(C(=O)NN2CCN(C)CC2)ccc1Nc1ncc2c(n1)N(C1CCCC1)CC1(CCC1)C(=O)N2C [Compound 180, 4-(9′-cyclopentyl-5′-methyl-6′-oxo-5′,6′,8′,9′-tetrahydrospiro[cyclobutane-1,7′-pyrimido[4,5-b][1,4]diazepine]-2′-ylamino)-3-methoxy-N-(4-methylpiperazin-1-yl)benzamide] |
| 3.16 to 10 | COc1cc(C(=O)N[C@H]2CCN(C)C2)ccc1Nc1ncc2c(n1)N(C1CCCC1)CC1(CC1)C(=O)N2C [Compound 167, (S)-4-(9′-cyclopentyl-5′-methyl-6′-oxo-5′,6′,8′,9′-tetrahydrospiro[cyclopropane-1,7′-pyrimido[4,5-b][1,4]diazepine]-2′-ylamino)-3-methoxy-N-(1-methylpyrrolidin-3-yl)benzamide] |
| > 10 | C=C[C@@]1(C)CN(C2CCCC2)c2nc(Nc3ccc(C(=O)NC4CCN(C)CC4)cc3OC)ncc2N(C)C1=O [Compound 241, (S)-4-(9-cyclopentyl-5,7-dimethyl-6-oxo-7-vinyl-6,7,8,9-tetrahydro-5H-pyrimido[4,5-b][1,4]diazepin-2-ylamino)-3-methoxy-N-(1-methylpiperidin-4-yl)benzamide] |
